For one data set, the target named is T1, PTHR-delNt (Homo sapiens, UniProt Q03431, DEL24-181).
T1 construct: expressed in transfected cells; host or cells: COS-7 cells, transient co-transfection; membranes prepared
T1 sequence (Q03431 with tags, fused parts or gaps DEL24-181): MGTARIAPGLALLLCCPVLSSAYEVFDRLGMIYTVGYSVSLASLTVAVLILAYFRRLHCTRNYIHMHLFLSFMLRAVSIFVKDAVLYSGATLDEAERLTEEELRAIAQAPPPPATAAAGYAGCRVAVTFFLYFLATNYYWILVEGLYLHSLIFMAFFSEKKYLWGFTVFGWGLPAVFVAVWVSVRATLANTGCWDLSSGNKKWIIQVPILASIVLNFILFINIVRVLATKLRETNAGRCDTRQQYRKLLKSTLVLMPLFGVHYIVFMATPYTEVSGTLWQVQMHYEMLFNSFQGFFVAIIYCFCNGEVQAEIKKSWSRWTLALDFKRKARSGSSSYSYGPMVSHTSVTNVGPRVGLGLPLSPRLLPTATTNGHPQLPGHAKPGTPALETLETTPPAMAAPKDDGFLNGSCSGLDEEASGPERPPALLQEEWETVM
Nature of the data set: Competition binding in COS-7 cell membranes with 125I-[Aib1,3,M]PTH(1-15)NH2 tracer. The conditions noted are these: for reduction (alteration) of binding affinity for PTHR-delNt relative to parent peptide: versus the respective parent peptide; for IC50: COS-7 membranes cotransfected with negative-dominant Gαs. The procedure: PTHR-delNt is a derivative of the human PTHR that is deleted for most (Ala^24-Arg^181) of the amino-terminal extracellular domain (Shimizu, M., et al. (2001) Endocrinology 142:3068-3074). This PTHR construct was expressed in COS-7 cells via transient DNA transfection. For cAMP assays, the cells were transfected in 24-well plates using 0.2 μg of plasmid DNA and 0.6 μl of Fugene-6 reagent (Roche Diagnostics, Indianapolis Ind.) per well, and assays were performed on the intact cells three to four days after transfection. For binding assays, cell membranes were prepared from transfected COS-7 cells. To increase the maximal binding of ^125I-[Aib^1,3,M]PTH(1-15)NH2 to PTHR-delNt in these membranes, the cells were cotransfected with a negative dominant mutant Gαs protein (Gαs^ND). This mutant Gαs subunit is thought to couple to cognate receptors, and thus stabilize high affinity receptor conformations, more efficiently than does wild-type Gαs, without increasing basal cAMP levels (Berlot, C. H. (2002) J Biol Chem 277:21080-5). A precursor of this mutant Gαs, Gαs(α3β5), was recently used to increase binding of ^125I-[Aib^1,3,M]PTH(1-15)NH2 to PTHR-delNt in COS-7 cell membranes (Dean, T., (2006) Mol Endocrinol 20:931-942). Gαs^ND, which contains the same five amino acid replacement of corresponding Gαi residues in the α3β5 loop as Gαs(α3β5), plus the point mutations of Gly^226 to Ala, which increases affinity for Gβ/γ, and Ala^366 to Ser, which decreases affinity for GDP, yields approximately two-fold higher levels of specific binding of ^125I-[Aib^1,3,M]PTH(1-15)NH2 than does Gαs(α3β5) (data not shown). For the current membrane preparations, COS-7 cells were co-transfected in six-well plates using 1 μg of each plasmid DNA encoding PTHR-delNt and Gαs^ND, and 6 μl of Fugene-6 reagent (Roche Diagnostics, Indianapolis Ind.) per well. Cells were harvested three days after transfection, and membranes were prepared as described (Dean, T., et al. (2006) Mol Endocrinol 20:931-942).
Receptor binding—Binding to the wild-type human PTHR in intact HKRK-B7 cells and ROS 17/2.8 cells was assessed using ^125I-PTH(1-34) as a tracer radioligand, as described (Shimizu, M., (2001) Endocrinology 142:3068-3074). In brief, the cells in 24-well plates (about 500,000 cells per well) were incubated in binding buffer containing radioligand (about 100,000 cpm per well) with or without unlabeled peptide ligand (3×10^−9 to 1×10^−5 M) for four hours at 15° C. The binding mixture was then removed by aspiration, the cells were rinsed three times with binding buffer, lysed in 1 M NaOH, and the entire lysate was counted for gamma-irradiation in a gamma counter. Binding to PTHR-delNt in COS-7 cell membranes was assessed in 96-well, vacuum filtration plates (Multiscreen-Durapore HV, […] membranes, Millipore Corp., Millford, Mass.) using ^125I-[Aib^1,3,M]PTH(1-15)NH2 as a tracer radioligand, as described (Dean, T., (2006) Mol Endocrinol 20:931-942). In brief, cell membranes (20 μg/well) were incubated in membrane binding buffer containing radioligand (30,000 cpm/well) with or without unlabeled peptide ligand (3×10^−9 to 1×10^−5 M) for 90 minutes at 21° C. The plates were then subject to rapid vacuum filtration, the filters were washed once with buffer, detached from the plate and counted for gamma-irradiation in a gamma counter. Non-specific binding was defined as the binding observed in the presence of 1×10^−6 M PTH(1-31)NH2 for HKRK-B7 and ROS 17/2.8 cells, and 1×10^−6 M [Aib^1,3,M]PTH(1-15)NH2 for PTHR-delNt. Specifically bound radioactivity was calculated as a percentage of the radioactivity specifically bound in the absence of competing ligand. […]

Data set [1] is described as follows: Circular dichroism spectroscopy, helical residues per peptide chain. It is filed as physicochemical. The settings on record: [Ala1,Arg19]hPTH(1-31)NH2 analogs; calculated from [θ]222. The procedure:
Circular Dichroism—CD spectra were obtained on a JASCO J-600 spectropolarimeter at 20° C. Four spectra were averaged and the data smoothed by the JASCO software. The instrument was calibrated with ammonium (+)-10-camphorsulfonate. Peptide concentrations were verified from the absorption at 280 nm, using an extinction coefficient of 5700 M^−1 for the single tryptophan. Data are expressed as the number of helical residues per peptide chain, as calculated from −[θ]222×30/28,000, where [θ]222 is the mean residue elipticity ([θ]) at 222 nm, as was described previously (Barbier, J. R., et al. (2005) J Biol Chem. 280:23771-23777).

Setting [2] is: [Ala1,Arg19]hPTH(1-31)NH2 analogs, read-out: PTHR-delNT (COS-7) IC50.

The structures appear in SMILES notation. Read-outs that look alike come from different tables or passages of the source. Where a SMILES comes first, the peptide text is derived from it. [ ]: non-standard residue; d: D form. Cha = N[C@@H](CC1CCCCC1)C(=O)O

In general, IC50 refers to the midpoint of a concentration-inhibition curve. Turning to `CC[C@H](C)[C@H](NC(=O)[C@H](CCC(=O)O)NC(=O)[C@H](CO)NC(=O)[C@@H](NC(=O)[C@H](C)N)C(C)C)C(=O)N[C@@H](CCC(N)=O)C(=O)N[C@@H](CC(C)C)C(=O)N[C@@H](CCSC)C(=O)N[C@@H](Cc1c[nH]cn1)C(=O)N[C@@H](CC(N)=O)C(=O)N[C@@H](CC(C)C)C(=O)NCC(=O)N[C@@H](CCCCN)C(=O)N[C@@H](Cc1c[nH]cn1)C(=O)N[C@@H](CC(C)C)C(=O)N[C@@H](CC(N)=O)C(=O)N[C@@H](CO)C(=O)N[C@@H](CCSC)C(=O)N[C@@H](CCCNC(=N)N)C(=O)N[C@@H](CCCNC(=N)N)C(=O)N[C@H](C(=O)N[C@@H](CCC(=O)O)C(=O)N[C@@H](Cc1c[nH]c2ccccc12)C(=O)N[C@@H](CC(C)C)C(=O)N[C@@H](CC1CCCCC1)C(=O)N[C@@H](CCCCN)C(=O)N[C@@H](CCCCN)C(=O)N[C@@H](CC(C)C)C(=O)N[C@@H](CCC(N)=O)C(=O)N[C@@H](CC(=O)O)C(=O)N[C@H](C(N)=O)C(C)C)C(C)C` [Arg^25→Cha] (H-AVSEIQLMHNLGKHLNSMRRVEWL[Cha]KKLQDV-NH2; N-terminus assumed), on PTHR-delNt (COS-7 membranes), the “reduction (alteration) of binding affinity for PTHR-delNt relative to parent peptide” value is “approximately five- to seven-fold”. The IC50 at PTHR-delNt (PTHR-delNT (COS-7) IC50, [Ala1,Arg19]hPTH(1-31)NH2 analogs) turned out to be 2.71 ± 1.31 µM. Also, the CD helical residues in data set [1] is 9.
For `CC[C@H](C)[C@H](NC(=O)[C@H](CCC(=O)O)NC(=O)[C@H](CO)NC(=O)[C@@H](NC(=O)[C@H](C)N)C(C)C)C(=O)N[C@@H](CCC(N)=O)C(=O)N[C@@H](CC(C)C)C(=O)N[C@@H](CCSC)C(=O)N[C@@H](Cc1c[nH]cn1)C(=O)N[C@@H](CC(N)=O)C(=O)N[C@@H](CC(C)C)C(=O)NCC(=O)N[C@@H](CCCCN)C(=O)N[C@@H](Cc1c[nH]cn1)C(=O)N[C@@H](CC(C)C)C(=O)N[C@@H](CC(N)=O)C(=O)N[C@@H](CO)C(=O)N[C@@H](CCSC)C(=O)N[C@@H](CCCNC(=N)N)C(=O)N[C@@H](CCCNC(=N)N)C(=O)N[C@H](C(=O)N[C@@H](CCC(=O)O)C(=O)N[C@@H](Cc1c[nH]c2ccccc12)C(=O)N[C@@H](CC(C)C)C(=O)N[C@@H](CCCNC(=N)N)C(=O)N[C@@H](CCCCN)C(=O)N[C@@H](CCCCN)C(=O)N[C@@H](CC(C)C)C(=O)N[C@@H](CC1CCCCC1)C(=O)N[C@@H](CC(=O)O)C(=O)N[C@H](C(N)=O)C(C)C)C(C)C` [Gln^29→Cha] (H-AVSEIQLMHNLGKHLNSMRRVEWLRKKL[Cha]DV-NH2; N-terminus assumed), the IC50 on PTHR-delNt (setting [2]) stood at 0.319 ± 0.057 µM. Also, the CD helical residues in data set [1] is listed as 8.
In the case of `CC[C@H](C)[C@H](NC(=O)[C@H](CCC(=O)O)NC(=O)[C@H](CO)NC(=O)[C@@H](NC(=O)[C@H](C)N)C(C)C)C(=O)N[C@@H](CCC(N)=O)C(=O)N[C@@H](CC(C)C)C(=O)N[C@@H](CCSC)C(=O)N[C@@H](Cc1c[nH]cn1)C(=O)N[C@@H](CC(N)=O)C(=O)N[C@@H](CC(C)C)C(=O)NCC(=O)N[C@@H](CCCCN)C(=O)N[C@@H](Cc1c[nH]cn1)C(=O)N[C@@H](CC(C)C)C(=O)N[C@@H](CC(N)=O)C(=O)N[C@@H](CO)C(=O)N[C@@H](CCSC)C(=O)N[C@@H](CCCNC(=N)N)C(=O)N[C@@H](CCCNC(=N)N)C(=O)N[C@H](C(=O)N[C@@H](CC1CCCCC1)C(=O)N[C@@H](Cc1c[nH]c2ccccc12)C(=O)N[C@@H](CC(C)C)C(=O)N[C@@H](CCCNC(=N)N)C(=O)N[C@@H](CCCCN)C(=O)N[C@@H](CCCCN)C(=O)N[C@@H](CC(C)C)C(=O)N[C@@H](CCC(N)=O)C(=O)N[C@@H](CC(=O)O)C(=O)N[C@H](C(N)=O)C(C)C)C(C)C` [Glu^22→Cha] (H-AVSEIQLMHNLGKHLNSMRRV[Cha]WLRKKLQDV-NH2; N-terminus assumed), the IC50 at PTHR-delNt (setting [2]) is 0.126 ± 0.045 µM. Besides, the CD helical residues in data set [1] is reported as 8.
In the case of `CC[C@H](C)[C@H](NC(=O)[C@H](CCC(=O)O)NC(=O)[C@H](CO)NC(=O)[C@@H](NC(=O)[C@H](C)N)C(C)C)C(=O)N[C@@H](CCC(N)=O)C(=O)N[C@@H](CC(C)C)C(=O)N[C@@H](CCSC)C(=O)N[C@@H](Cc1c[nH]cn1)C(=O)N[C@@H](CC(N)=O)C(=O)N[C@@H](CC(C)C)C(=O)NCC(=O)N[C@@H](CCCCN)C(=O)N[C@@H](Cc1c[nH]cn1)C(=O)N[C@@H](CC(C)C)C(=O)N[C@@H](CC(N)=O)C(=O)N[C@@H](CO)C(=O)N[C@@H](CCSC)C(=O)N[C@@H](CCCNC(=N)N)C(=O)N[C@@H](CCCNC(=N)N)C(=O)N[C@H](C(=O)N[C@@H](CCC(=O)O)C(=O)N[C@@H](Cc1c[nH]c2ccccc12)C(=O)N[C@@H](CC1CCCCC1)C(=O)N[C@@H](CCCNC(=N)N)C(=O)N[C@@H](CCCCN)C(=O)N[C@@H](CCCCN)C(=O)N[C@@H](CC(C)C)C(=O)N[C@@H](CCC(N)=O)C(=O)N[C@@H](CC(=O)O)C(=O)N[C@H](C(N)=O)C(C)C)C(C)C` [Leu^24→Cha] (H-AVSEIQLMHNLGKHLNSMRRVEW[Cha]RKKLQDV-NH2; N-terminus assumed), on PTHR-delNt (COS-7 membranes), the “effect on binding to PTHR-delNt (in words)” value was “little or no effect on binding to PTHR-delNt” and the “reduction (alteration) of binding affinity for PTHR-delNt relative to parent peptide” value is reported as “three-fold or less”. On PTHR-delNt (setting [2]), the IC50 came out at 0.283 ± 0.068 µM. Further, in data set [1], the CD helical residues is reported as 9.
As to `CC[C@H](C)[C@H](NC(=O)[C@H](CCC(=O)O)NC(=O)[C@H](CO)NC(=O)[C@@H](NC(=O)[C@H](C)N)C(C)C)C(=O)N[C@@H](CCC(N)=O)C(=O)N[C@@H](CC(C)C)C(=O)N[C@@H](CCSC)C(=O)N[C@@H](Cc1c[nH]cn1)C(=O)N[C@@H](CC(N)=O)C(=O)N[C@@H](CC(C)C)C(=O)NCC(=O)N[C@@H](CCCCN)C(=O)N[C@@H](Cc1c[nH]cn1)C(=O)N[C@@H](CC(C)C)C(=O)N[C@@H](CC(N)=O)C(=O)N[C@@H](CO)C(=O)N[C@@H](CCSC)C(=O)N[C@@H](CCCNC(=N)N)C(=O)N[C@@H](CCCNC(=N)N)C(=O)N[C@H](C(=O)N[C@@H](CCC(=O)O)C(=O)N[C@@H](Cc1c[nH]c2ccccc12)C(=O)N[C@@H](CC(C)C)C(=O)N[C@@H](CCCNC(=N)N)C(=O)N[C@@H](CCCCN)C(=O)N[C@@H](CCCCN)C(=O)N[C@@H](CC1CCCCC1)C(=O)N[C@@H](CCC(N)=O)C(=O)N[C@@H](CC(=O)O)C(=O)N[C@H](C(N)=O)C(C)C)C(C)C` [Leu^28→Cha] (H-AVSEIQLMHNLGKHLNSMRRVEWLRKK[Cha]QDV-NH2; N-terminus assumed), at PTHR-delNt (setting [2]), the IC50 was found to be 0.226 ± 0.039 µM. The CD helical residues in data set [1] is recorded as 8.
